{"source": "patent US8361971B2", "about": "“Tablet formulation of ezatiostat” (Telik, Inc., priority 2010, dated 2013)", "assay_type_in_all_cases": "physicochemical", "key": {"[1]": {"assay": "Description (appearance) of tablets on storage", "procedure": "(§1) Tablets of ansolvate form D, were packaged with and without desiccant (Sorb-It Cannister, 1 gram). Fifty tablets were packaged in a round, white 1500 mL bottle with a screw cap over an induction seal. Impurities were assayed by HPLC. When stored at 25° C./60% RH with desiccant for 3 months, no increase in total impurities was observed. When stored at 40° C./75% RH with desiccant for 3 months, total impurities increased only by 0.3%. When stored at 40° C./75% RH without desiccant for 3 months, total impurities still increased by 1.1%. As tabulated below, the presence of desiccant appears to further increase the stability of the ansolvate form D. Even though the dissolution rate of tablets containing polymorph D from one batch was below specification (<70%) at an initial test as well as after 3 months at 25° C./60% RH with desiccant, the subsequent batches met the required specification."}, "[2]": {"assay": "Assay and impurities by HPLC of tablets on storage", "parameters": "key to Individual Impurities RRT = 0.74 / Individual Impurities RRT = 0.83 / TLK 236 RRT = 0.88 / Individual Impurities RRT = 0.94 / Individual Impurities RRT = 0.96 / Total impurities / Individual Impurities RRT = 0.80 / Individual Impurities RRT = 0.81 / Individual Impurities RRT = 0.86 / Individual Impurities RRT = 0.99: impurity content in %", "conditions": "hydrochloride", "text": "As used herein, “impurity” refers to one or more of: TLK 236, another polymorphic form of ezatiostat hydrochloride including without limitation form A, B, C, E, or F, and any other compound other than ezatiostat hydrochloride ansolvate, which may be identified by HPLC. TLK 236 is a monoester derived from the partial hydrolysis of ezatiostat where the phenyl glycine moiety remains esterified.\n(§2) As described above, form E converts to form B simply during tableting.\nas §1"}, "[3]": {"assay": "Tablet dissolution (Q at 45 min)", "conditions": "tablets, hydrochloride", "text": "Without being bound by theory, a higher dissolution rate relates to a higher amount of the active agent in the gastric fluid, which in turn relates to higher bioavailability of the active agent. A high bioavailability is desired, for example and without limitation, for reducing inter patient variability of drug exposure for a orally administered agent such as ezatiostat hydrochloride. […] The aqueous solubility can be measured in a variety of aqueous solvents, including without limitation, water, 0.9% aqueous NaCl, 5% dextrose for injection, phosphate buffered saline, and generally aqueous solutions having a pH of less than about 5. Such solvents may include suitable buffers and other salts. […]\nas §1"}, "[4]": {"assay": "Water content of tablets on storage", "conditions": "hydrochloride", "procedure": "Karl Fischer analyses for water determination were performed on a Mettler Toledo DL39 Karl Fischer titrator. About 10-15 mg of sample was placed in the KF titration vessel containing approximately 100 mL of Hydranal®—Coulomat AD reagent and mixed for 60 seconds to ensure dissolution. The dissolved sample was then titrated by means of a generator electrode which produces iodine by electrochemical oxidation. […]\nas §1"}, "[5]": {"assay": "X-ray diffraction, polymorphic form in tablets", "conditions": "hydrochloride; for X-ray Diffraction: tablets", "procedure": "X-ray powder diffraction (XRPD) analyses were performed on a Shimadzu XRD-6000 X-ray powder diffractometer using Cu Kα radiation from a long fine focus X-ray tube, operated at 40 kV, 40 mA. The divergence and scattering slits were set at 1° and the receiving slit was set at 0.15 mm. Diffracted radiation was detected by a NaI scintillation detector. A θ-2θ continuous scan at 3°/min (0.4 sec/0.02° step) from 2.5°-40° 2θ was used. A silicon standard was analyzed to check alignment of the instrument. Data were collected and analyzed using XRD-6000 v.4.1 software.\nStress experiments: solids were stressed under different temperature and/or relative humidity (RH) environments for a measured time period. Specific RH values were achieved by placing the sample inside sealed chambers containing saturated salt solutions. Samples were analyzed by XRPD immediately after removal from the stress environment.\nas §2, §1"}, "[6]": {"assay": "Assay and impurities by HPLC of tablets on storage", "parameters": "key to Individual Impurities RRT = 0.74 / TLK 236 RRT = 0.88 / Individual Impurities RRT = 0.96 / Total impurities: impurity content in %", "conditions": "6 Month at 40° C./75% RH without desiccant, hydrochloride"}, "[7]": {"conditions": "3 Month at 40° C./75% RH without desiccant"}, "[8]": {"conditions": "6 Month at 40° C./75% RH without desiccant"}}}
{"smiles": "CCOC(=O)[C@@H](N)CCC(=O)N[C@@H](CSCc1ccccc1)C(=O)N[C@@H](C(=O)OCC)c1ccccc1.Cl", "note": "[Polymorph Form A, ezatiostat hydrochloride]", "values": [{"measurement": "Description", "setting": "[1]; [7]", "result": "Off-white"}, {"measurement": "Description", "setting": "[1]; 6 Month at 40° C./75% RH without desiccant, hydrochloride", "result": "Off-white"}, {"measurement": "Description", "setting": "[1]; Initial", "result": "White round"}, {"measurement": "Assay (HPLC)", "setting": "[2]; [7]", "result": 94.1, "unit": "% Label Claim"}, {"measurement": "Individual Impurities RRT = 0.74", "setting": "[2]; [7]", "result": 0.16}, {"measurement": "Individual Impurities RRT = 0.80", "setting": "[2]; [7]", "result": 0.08}, {"measurement": "Individual Impurities RRT = 0.81", "setting": "[2]; [7]", "result": 0.07}, {"measurement": "Individual Impurities RRT = 0.83", "setting": "[2]; [7]", "result": 0.10}, {"measurement": "Individual Impurities RRT = 0.94", "setting": "[2]; [7]", "result": 0.07}, {"measurement": "Individual Impurities RRT = 0.96", "setting": "[2]; [7]", "result": 0.16}, {"measurement": "Individual Impurities RRT = 0.99", "setting": "[2]; [7]", "result": 0.07}, {"measurement": "TLK 236 RRT = 0.88", "setting": "[2]; [7]", "result": 1.99}, {"measurement": "Total impurities", "setting": "[2]; [7]", "result": 2.7}, {"measurement": "Individual Impurities RRT = 0.80", "setting": "[2]; [8]", "result": 0.14}, {"measurement": "Individual Impurities RRT = 0.81", "setting": "[2]; [8]", "result": 0.05}, {"measurement": "Assay (HPLC)", "setting": "[2]; Initial", "result": 97.2, "unit": "% Label Claim"}, {"measurement": "Individual Impurities RRT = 0.74", "setting": "[2]; Initial", "result": 0.13}, {"measurement": "Individual Impurities RRT = 0.83", "setting": "[2]; Initial", "result": 0.46}, {"measurement": "Individual Impurities RRT = 0.96", "setting": "[2]; Initial", "result": 0.16}, {"measurement": "TLK 236 RRT = 0.88", "setting": "[2]; Initial", "result": 0.45}, {"measurement": "Total impurities", "setting": "[2]; Initial", "result": 1.2}, {"measurement": "Dissolution, Mean at 45 min", "setting": "[3]; [7]", "result": "Mean = 74 % of label claim"}, {"measurement": "Dissolution, Mean at 45 min", "setting": "[3]; [8]", "result": "Mean = 71 % of label claim"}, {"measurement": "Dissolution, Mean at 45 min", "setting": "[3]; Initial", "result": "Mean = 12 % of label claim"}, {"measurement": "Water Content", "setting": "[4]; [7]", "result": 1.7, "unit": "%"}, {"measurement": "Water Content", "setting": "[4]; [8]", "result": 1.9, "unit": "%"}, {"measurement": "Water Content", "setting": "[4]; Initial", "result": 2.1, "unit": "%"}, {"measurement": "polymorphic conversion during tablet manufacture", "setting": "[5]; during tablet manufacture, listed as solvate form A", "result": "converting into a mixture of forms A and D during manufacture"}, {"measurement": "X-ray Diffraction", "setting": "[5]; [7]", "result": "Polymorph A"}, {"measurement": "X-ray Diffraction", "setting": "[5]; [8]", "result": "Polymorph A"}, {"measurement": "X-ray Diffraction", "setting": "[5]; Initial", "result": "Polymorph A"}, {"measurement": "Assay (HPLC)", "setting": "[6]", "result": 91.5, "unit": "% Label Claim"}, {"measurement": "Individual Impurities RRT = 0.59/0.62", "setting": "[6]", "result": 0.07}, {"measurement": "Individual Impurities RRT = 0.74", "setting": "[6]", "result": 0.15}, {"measurement": "Individual Impurities RRT = 0.96", "setting": "[6]", "result": 0.21}, {"measurement": "TLK 236 RRT = 0.88", "setting": "[6]", "result": 2.92}, {"measurement": "Total impurities", "setting": "[6]", "result": 3.5}]}
